Assays:
[1] = test system: NF-kB reporter in Jurkat cells; assay: NF-kB reporter assay in Jurkat cells stimulated with aCD3/aCD28/PMA; assay type: cell-based; conditions: Homo sapiens; Jurkat cells, 1 hr compound pre-incubation, aCD3/aCD28/PMA stimulation 4 hr, One-Glo readout; read-out: NF-kB Reporter Assay IC50
How it was run: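 Luminescence (One-Glo) from the NF-kB reporter yielded IC50 values. Stimulation lasted 4 h at 37° C with aCD3, aCD28 and PMA (final 5, 5 and 0.03 […]), after 1 h compound pre-exposure of 25,000 Jurkat cells per well in serum-free RPMI.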

Avi-tagged FL MALT-1 = Avi-tagged FL MALT-1 (Homo sapiens (Human), UniProt Q9UDY8); assay: MALT-1 Fluorogenic Peptide Cleavage Assay (MALT1 inhibition assay); assay type: biochemical; conditions: Ac-LRSR-AMC peptide substrate, 30 min pre-incubation, 90 min reaction at room temperature
Sequence of Avi-tagged FL MALT-1 (Q9UDY8 whole entry): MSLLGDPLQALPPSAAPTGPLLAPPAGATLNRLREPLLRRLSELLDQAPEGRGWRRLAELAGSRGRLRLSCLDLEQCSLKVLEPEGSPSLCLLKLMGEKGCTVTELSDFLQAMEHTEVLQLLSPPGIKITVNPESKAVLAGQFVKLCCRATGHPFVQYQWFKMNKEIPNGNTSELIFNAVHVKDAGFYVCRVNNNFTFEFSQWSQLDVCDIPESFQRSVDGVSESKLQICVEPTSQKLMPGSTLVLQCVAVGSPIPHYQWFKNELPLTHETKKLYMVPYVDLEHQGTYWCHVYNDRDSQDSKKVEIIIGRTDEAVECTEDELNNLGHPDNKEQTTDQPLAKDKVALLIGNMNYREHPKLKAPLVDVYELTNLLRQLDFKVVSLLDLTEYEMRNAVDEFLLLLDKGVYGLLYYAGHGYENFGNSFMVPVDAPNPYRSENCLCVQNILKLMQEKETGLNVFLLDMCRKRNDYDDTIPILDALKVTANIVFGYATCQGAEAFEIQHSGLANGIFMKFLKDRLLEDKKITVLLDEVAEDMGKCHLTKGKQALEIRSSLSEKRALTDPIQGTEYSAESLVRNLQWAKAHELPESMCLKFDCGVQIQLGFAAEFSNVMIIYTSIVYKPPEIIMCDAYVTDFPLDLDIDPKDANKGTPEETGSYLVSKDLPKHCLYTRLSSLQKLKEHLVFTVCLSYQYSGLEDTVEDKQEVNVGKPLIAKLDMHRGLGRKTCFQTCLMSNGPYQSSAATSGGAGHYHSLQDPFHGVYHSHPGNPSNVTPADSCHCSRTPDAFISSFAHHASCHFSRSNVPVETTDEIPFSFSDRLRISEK
How it was run: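 Cleavage of Ac-LRSR-AMC, read as fluorescence at 342/441 nm after 90 min at room temperature, with substrate working stocks of 50 μM (Km) or 280 μM (10×Km). Enzyme, Avi-tagged full-length MALT-1 (40 nM stock), was first pre-incubated 30 min with compound in citrate/HEPES pH 6.89 buffer with TCEP, EDTA, CHAPS and 2% DMSO; IC50 fitted from normalised % inhibition.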

Compound	IC50 [1] [µM]	IC50 (Avi-tagged FL MALT-1) [µM]
Cc1ccc2cnn(C)c2c1NS(=O)(=O)c1cnn(-c2ccnc(C(F)(F)F)c2)c1 [Compound I-59, N-(1,6-Dimethyl-1H-Indazol-7-yl)-1-(2-(Trifluoromethyl)Pyridin-4-yl)-1H-Pyrazole-4-Sulfonamide]	0.4 to 1	≤ 0.4
Cc1ccc2cnn(C)c2c1NS(=O)(=O)c1cnn(-c2cc(C(F)(F)F)ccn2)c1 [Compound I-60, N-(1,6-Dimethyl-1H-Indazol-7-yl)-1-(4-(Trifluoromethyl) Pyridin-2-yl)-1H-Pyrazole-4-Sulfonamide]	< 0.4	≤ 0.4
CCc1ccc2cnn(C)c2c1NS(=O)(=O)c1cnn(-c2ccnc(OC(F)(F)F)c2)c1 [Compound I-61, N-(6-Ethyl-1-Methyl-1H-Indazol-7-yl)-1-(2-(Trifluoromethoxy) Pyridin-4-yl)-1H-Pyrazole-4-Sulfonamide]	1 to 2.5	1 to 2.5
CCc1ccc2[nH]nc(C)c2c1N(C)S(=O)(=O)c1cnn(-c2ccnc(C(F)(F)F)c2)c1 [Compound I-62, N-(5-Ethyl-3-Methyl-1H-Indazol-4-yl)-N-Methyl-1-(2-(Trifluoromethyl)Pyridin-4-yl)-1H-Pyrazole-4-Sulfonamide]	0.4 to 1	≤ 0.4
Cc1ccnc(-n2cc(S(=O)(=O)Nc3cccc4[nH]nc(C)c34)cn2)c1 [Compound I-63, N-(3-Methyl-1H-Indazol-4-yl)-1-(4-Methylpyridin-2-yl)-1H-Pyrazole-4-Sulfonamide]	< 0.4	> 2.5
Cc1n[nH]c2cccc(N(C)S(=O)(=O)c3cnn(-c4ccnc(C(F)(F)F)c4)c3)c12 [Compound I-64, N-Methyl-N-(3-Methyl-1H-Indazol-4-yl)-1-(2-(Trifluoromethyl)Pyridin-4-yl)-1H-Pyrazole-4-Sulfonamide]	> 2.5	1 to 2.5
Cc1n[nH]c2cccc(N(C)S(=O)(=O)c3cnn(-c4cc(C(F)(F)F)ccn4)c3)c12 [Compound I-65, N-Methyl-N-(3-Methyl-1H-Indazol-4-yl)-1-(4-(Trifluoromethyl)Pyridin-2-yl)-1H-Pyrazole-4-Sulfonamide]	0.4 to 1	0.4 to 1
Cc1ccnc(-n2cc(S(=O)(=O)N(C)c3cccc4[nH]nc(C)c34)cn2)c1 [Compound I-66, N-Methyl-N-(3-Methyl-1H-Indazol-4-yl)-1-(4-Methylpyridin-2-yl)-1H-Pyrazole-4-Sulfonamide]	> 2.5	> 2.5
Cc1ccc2[nH]nc(C)c2c1NS(=O)(=O)c1cnn(-c2cc(C(F)(F)F)ccn2)c1 [Compound I-67]	< 0.4	≤ 0.4
C=C(CO)c1ccnc(-n2cc(S(=O)(=O)Nc3c(OC)ccc4cnn(C)c34)cn2)c1 [Compound I-68, 1-(4-(3-Hydroxyprop-1-EN-2-yl)Pyridin-2-yl)-N-(6-Methoxy-1-Methyl-1H-Indazol-7-yl)-1H-Pyrazole-4-Sulfonamide]	< 0.4	≤ 0.4
COc1ccc2cnn(C)c2c1NS(=O)(=O)c1cnn(-c2cc(C3(F)COC3)ccn2)c1 [Compound I-69, 1-(4-(3-Fluorooxetan-3-yl)Pyridin-2-yl)-N-(6-Methoxy-1-Methyl-1H-Indazol-7-yl)-1H-Pyrazole-4-Sulfonamide]	< 0.4	≤ 0.4
[2H]C([2H])([2H])Oc1ccc2cnn(C)c2c1NS(=O)(=O)c1cnn(-c2cc(C(F)(F)F)ccn2)c1 [Compound I-70, N-(6-(Methoxy-D3)-1-Methyl-1H-Indazol-7-yl)-1-(4-(Trifluoromethyl)Pyridin-2-yl)-1H-Pyrazole-4-Sulfonamide]	< 0.4	≤ 0.4
[2H]C([2H])([2H])c1ccc2cnn(C)c2c1NS(=O)(=O)c1cnn(-c2cc(C(F)(F)F)ccn2)c1 [Compound I-71, N-(1-Methyl-6-(Methyl-D3)-1H-Indazol-7-yl)-1-(4-(Trifluoromethyl)Pyridin-2-yl)-1H-Pyrazole-4-Sulfonamide]	< 0.4	≤ 0.4
COc1ccc2cnn(C)c2c1NS(=O)(=O)c1cnn(-c2cc(C(F)(F)F)ccn2)c1 [Compound I-72, N-(6-Methoxy-1-(Methyl-D3)-1H-Indazol-7-yl)-1-(4-(Trifluoromethyl)Pyridin-2-yl)-1H-Pyrazole-4-Sulfonamide]	< 0.4	≤ 0.4
Cc1n[nH]c2cccc(NS(=O)(=O)c3cnn(-c4cc(C(F)(F)F)ccn4)c3)c12 [Compound I-73, N-(3-Methyl-1H-Indazol-4-yl)-1-(4-(Trifluoromethyl)Pyridin-2-yl)-1H-Pyrazole-4-Sulfonamide]	< 0.4	1 to 2.5
Cc1ccc2[nH]nc(C)c2c1NS(=O)(=O)c1cnn(-c2ccnc(C(F)(F)F)c2)c1 [Compound I-74, N-(3,5-Dimethyl-1H-Indazol-4-yl)-1-(2-(Trifluoromethyl)Pyridin-4-yl)-1H-Pyrazole-4-Sulfonamide]	1 to 2.5	≤ 0.4

Compound	IC50 [1] [µM]	IC50 (Avi-tagged FL MALT-1) [µM]
Cn1ncc2cccc(NS(=O)(=O)c3cnn(-c4ccnc(C5CC5)c4)c3)c21 [Compound I-75, 1-(2-Cyclopropylpyridin-4-yl)-N-(1-Methyl-1H-Indazol-7-yl)-1H-Pyrazole-4-Sulfonamide]	0.4 to 1	> 2.5
Cn1ncc2cccc(NS(=O)(=O)c3cnn(-c4cc(C5CC5)ccn4)c3)c21 [Compound I-76, 1-(4-Cyclopropylpyridin-2-yl)-N-(1-Methylindazol-7-yl)Pyrazole-4-Sulfonamide]	< 0.4	1 to 2.5
COc1ccc2cnn(C)c2c1NS(=O)(=O)c1cnn(-c2ccnc(C3CC3)c2)c1 [Compound I-77, 1-(2-Cyclopropylpyridin-4-yl)-N-(6-Methoxy-1-Methyl-1H-Indazol-7-yl)-1H-Pyrazole-4-Sulfonamide]	< 0.4	≤ 0.4
CCc1ccc2[nH]nc(C)c2c1N(C)S(=O)(=O)c1cnn(-c2cc(C)ccn2)c1 [Compound I-78, N-(5-Ethyl-3-Methyl-1H-Indazol-4-yl)-N-Methyl-1-(4-Methylpyridin-2-yl)Pyrazole-4-Sulfonamide]	0.4 to 1	≤ 0.4
COc1ccc2[nH]nc(C)c2c1NS(=O)(=O)c1cnn(-c2ccnc(C(F)(F)F)c2)c1 [Compound I-79, N-(5-Methoxy-3-Methyl-1H-Indazol-4-yl)-1-(2-(Trifluoromethyl)Pyridin-4-yl)-1H-Pyrazole-4-Sulfonamide]	< 0.4	≤ 0.4
COc1ccc2[nH]nc(C)c2c1N(C)S(=O)(=O)c1cnn(-c2ccnc(C(F)(F)F)c2)c1 [Compound I-80, N-(5-methoxy-3-Methyl-1H-Indazol-4-yl)-N-Methyl-1-(2-(Trifluoromethyl)Pyridin-4-yl)-1H-Pyrazole-4-Sulfonamide]	1 to 2.5	≤ 0.4
COc1ccc2[nH]nc(C)c2c1NS(=O)(=O)c1cnn(-c2cc(C(F)(F)F)ccn2)c1 [Compound I-81, N-(5-Methoxy-3-Methyl-1H-Indazol-4-yl)-1-(4-(Trifluoromethyl)Pyridin-2-yl)-1H-Pyrazole-4-Sulfonamide]	< 0.4	≤ 0.4
COc1ccc2[nH]nc(C)c2c1N(C)S(=O)(=O)c1cnn(-c2cc(C(F)(F)F)ccn2)c1 [Compound I-82, N-(5-Methoxy-3-Methyl-1H-Indazol-4-yl)-N-Methyl-1-(4-(Trifluoromethyl)Pyridin-2-yl)-1H-Pyrazole-4-Sulfonamide]	< 0.4	≤ 0.4
COc1ccc2cnn(C)c2c1NS(=O)(=O)c1cn(-c2cc(C(F)(F)F)ccn2)nc1C [Compound I-83, N-(6-Methoxy-1-Methyl-1H-Indazol-7-yl)-3-Methyl-1-(4-(Trifluoromethyl)Pyridin-2-yl)-1H-Pyrazole-4-Sulfonamide]	< 0.4	≤ 0.4
COc1ccc2cnn(C)c2c1NS(=O)(=O)c1cnn(-c2cc(C(F)(F)F)ccn2)c1C [Compound I-84, N-(6-Methoxy-1-Methyl-1H-Indazol-7-yl)-5-Methyl-1-(4-(Trifluoromethyl)Pyridin-2-yl)-1H-Pyrazole-4-Sulfonamide]	< 0.4	≤ 0.4
Cn1ncc2ccc(Cl)c(NS(=O)(=O)c3cnn(-c4cc(C(F)(F)F)ccn4)c3)c21 [Compound I-85, N-(6-chloro-1-Methyl-1H-Indazol-7-yl)-1-(4-(Trifluoromethyl)Pyridin-2-yl)-1H-Pyrazole-4-Sulfonamide]	< 0.4	≤ 0.4
Cn1ncc2cccc(NS(=O)(=O)c3cnn(-c4cc(Cl)ccn4)c3)c21 [Compound I-86, 1-(4-Chloropyridin-2-yl)-N-(1-Methyl-1H-Indazol-7-yl)-1H-Pyrazole-4-Sulfonamide]	< 0.4	> 2.5
COc1ncc2cnn(C)c2c1NS(=O)(=O)c1cnn(-c2ccnc(C(F)(F)F)c2)c1 [Compound I-87, N-(6-Methoxy-1-Methyl-1H-Pyrazolo[4,3-C]Pyridin-7-yl)-1-(2-(Trifluoromethyl)Pyridin-4-yl)-1H-Pyrazole-4-Sulfonamide]	< 0.4	≤ 0.4
Cc1n[nH]c2cccc(NS(=O)(=O)c3cnn(-c4ccnc(C5CC5)c4)c3)c12 [Compound I-88, 1-(2-Cyclopropylpyridin-4-yl)-N-(3-Methyl-1H-Indazol-4-yl)-1H-Pyrazole-4-Sulfonamide]	< 0.4	> 2.5
Cc1n[nH]c2cccc(NS(=O)(=O)c3cnn(-c4cc(C5CC5)ccn4)c3)c12 [Compound I-89, 1-(4-Cyclopropylpyridin-2-yl)-N-(3-Methyl-1H-Indazol-4-yl)-1H-Pyrazole-4-Sulfonamide]	< 0.4	> 2.5

From US20240150321A1, “PYRAZOLYLSULFONAMIDE COMPOUNDS AND THEIR USE IN THERAPY” (HOTSPOT THERAPEUTICS, INC., priority 2022, published 2024)
